Test results as given in patent publication US20060252807A1, “Novel ortho-terphenyl inhibitors of p38 kinase and methods of treating inflammatory disorders” (Kalypsys, Inc., priority 2005, published 2006).

target: T1, active p38 alpha enzyme (Upstate Biotechnology) (Homo sapiens, UniProt Q16539); test: p38α biochemical assay (ATP turnover, luminescent detection, Cambrex PKlight); conditions: p38α biochemical assay, Table 1 Biological Activity
T1 construct: purchased Upstate Biotechnology
Procedure, shortened: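 Compounds in DMSO are added to active p38 alpha with MapkapK2 whole protein and ATP at 1.4 uM final. Reactions then run for 2 hours at 30C. A luminescent reagent is added last to quantify total ATP consumed.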

T1 sequence (Q16539 whole entry): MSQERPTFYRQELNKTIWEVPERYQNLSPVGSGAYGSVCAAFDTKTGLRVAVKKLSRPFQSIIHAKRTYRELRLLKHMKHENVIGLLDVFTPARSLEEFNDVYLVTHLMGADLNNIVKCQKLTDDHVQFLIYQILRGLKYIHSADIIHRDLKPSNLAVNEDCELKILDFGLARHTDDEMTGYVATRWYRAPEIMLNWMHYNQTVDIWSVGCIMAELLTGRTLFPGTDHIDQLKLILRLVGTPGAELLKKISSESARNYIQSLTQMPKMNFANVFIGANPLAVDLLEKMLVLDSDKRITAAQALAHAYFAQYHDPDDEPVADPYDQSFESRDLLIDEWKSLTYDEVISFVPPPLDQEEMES

SMILES	IC50 [nM]
CC(C)NC(=O)c1csc(-c2c(-c3ccc(F)cc3)n[nH]c2C2CCN(C(=O)CO)CC2)n1 [Example 62, 2-{3-(4-Fluoro-phenyl)-5-|1-(2-hydroxy-acetyl)-piperidin-4-yl|-1H-pyrazol-4-yl}thiazole-4-carboxylic acid isopropylamide]	≤ 1000
CCNC(=O)c1csc(-c2c(-c3ccc(F)cc3)n[nH]c2C2CCN(C(=O)CO)CC2)n1 [Example 64, 2-{3-(4-Fluoro-phenyl)-5-|1-(2-hydroxy-acetyl)-piperidin-4-yl|-1H-pyrazol-4-yl}-thiazole-4-carboxylic acid ethylamide]	≤ 1000
O=C(NCc1cccnc1)c1csc(-c2c(-c3ccc(F)cc3)n[nH]c2C2CCN(C(=O)CO)CC2)n1 [Example 68, 2-{3-(4-Fluoro-phenyl)-5-|1-(2-hydroxy-acetyl)-piperidin-4-yl|-1H-pyrazol-4-yl}thiazole-4-carboxylic acid (pyridin-3-ylmethyl)-amide]	≤ 1000
CC(C)NC(=O)c1csc(-c2c(-c3ccc(F)cc3)ncn2C2CCNCC2)n1 [Example 91, 2-|5-(4-Fluoro-phenyl)-3-piperidin-4-yl-3H-imidazol-4-yl|-thiazole-4-carboxylic acid isopropylamide]	≤ 1000
Cc1nc(-c2ccc(F)cc2)c(-c2nc(C(=O)NC(C)C)cs2)o1 [Example 38]	≤ 1000
CCN(CC)c1ccc(C(=O)NCc2nc(-c3ccc(F)cc3)c(-c3nc(C(=O)NC(C)C)cs3)o2)cc1 [Example 260]	≤ 1000
CC(=O)Oc1ccccc1C(=O)NCc1onc(-c2ccc(F)cc2)c1-c1nc(C(=O)NC(C)C)cs1 [Example 691]	≤ 1000
CCOc1ccc2ccccc2c1C(=O)NCc1nc(-c2ccc(F)cc2)c(-c2nc(C(=O)NC(C)C)cs2)o1 [Example 297]	> 1000
CCC(CO)NC(=O)c1csc(-c2sc(C)nc2-c2ccc(F)cc2)n1 (centres unmarked) [Example 54, 4′-(4-Fluoro-phenyl)-2′-methyl-|2,5′|bithiazolyl-4-carboxylic acid (1-hydroxymethyl-propyl)-amide]	≤ 1000
Cc1onc(-c2ccc(Cl)cc2)c1-c1cc(C)n(C(=O)NC(C)C)n1 [Example 16, 3-|3-(4-Chloro-phenyl)-5-methyl-isoxazol-4-yl|-5-methyl-pyrazole-1-carboxylic acid isopropylamide]	≤ 1000
CCOc1ccccc1C(=O)NCc1nc(-c2ccc(F)cc2)c(-c2nc(C(=O)NC(C)C)cs2)o1 [Example 179]	> 1000
CC(C)NC(=O)c1csc(-c2oc(CNC(=O)c3ccc(Cl)c(Br)c3)nc2-c2ccc(F)cc2)n1 [Example 321]	> 1000
CC(C)NC(=O)c1csc(-c2c(-c3ccc(F)cc3)noc2CNC(=O)c2c(Cl)cc(Cl)cc2Cl)n1 [Example 781]	> 1000
CC(C)NC(=O)c1csc(-c2oc(CNC(=O)/C=C/c3ccccc3Cl)nc2-c2ccc(F)cc2)n1 [Example 231]	> 1000
Cc1cc(C)cc(C(=O)N2CCN(Cc3nc(-c4ccc(F)cc4)c(-c4nc(C(=O)NC(C)C)cs4)o3)CC2)c1 [Example 375]	> 1000
CC(C)NC(=O)c1csc(-c2oc(CNC(=O)c3cc(F)c(F)cc3[N+](=O)[O-])nc2-c2ccc(F)cc2)n1 [Example 278]	≤ 1000
CC(C)NC(=O)c1csc(-c2oc(CN3CCN(C(=O)/C=C/c4ccccc4F)CC3)nc2-c2ccc(F)cc2)n1 [Example 415]	> 1000
C#CCNC(=O)c1csc(-c2c(-c3ccc(F)cc3)ncn2C2CCNCC2)n1 [Example 92, 2-|5-(4-Fluoro-phenyl)-3-piperidin-4-yl-3H-imidazol-4-yl|-thiazole-4-carboxylic acid prop-2-ynylamide]	≤ 1000
Cc1cccc([N+](=O)[O-])c1C(=O)N1CCN(Cc2nc(-c3ccc(F)cc3)c(-c3nc(C(=O)NC(C)C)cs3)o2)CC1 [Example 457]	≤ 1000
CC(C)NC(=O)c1csc(-c2oc(CNC(=O)C(Cl)(Cl)Cl)nc2-c2ccc(F)cc2)n1 [Example 165]	> 1000
CC(C)NC(=O)c1csc(-c2oc(CN3CCN(C(=O)c4cccc5ccccc45)CC3)nc2-c2ccc(F)cc2)n1 [Example 431]	≤ 1000
CC(C)NC(=O)c1csc(-c2oc(CNC(=O)CC#N)nc2-c2ccc(F)cc2)n1 [Example 100]	≤ 1000

same assay, conditions: p38α kinase; Table 1 Biological Activity

SMILES	IC50 [nM]
O=C(NCc1cccnc1)c1csc(-c2c(-c3ccc(F)cc3)n[nH]c2C2CCNCC2)n1 [Example 2028]	≤ 1000
CCNC(=O)c1csc(-c2c(-c3ccc(F)cc3)n[nH]c2C2CCNCC2)n1 [Example 2026]	≤ 1000
O=C(NC1CCCCCC1)c1csc(-c2c(-c3ccc(F)cc3)n[nH]c2C2CCNCC2)n1 [Example 2068]	> 1000
CC(C)NC(=O)c1csc(-c2oc(CNCc3ccc(F)cc3F)nc2-c2ccc(F)cc2)n1 [Example 1134]	> 1000
Cc1cccc(C(=O)N2CCC(c3[nH]nc(-c4ccc(F)cc4)c3-c3nc(C(=O)NC(C)C)cs3)CC2)c1C [Example 850]	> 1000
CCNCc1nc(-c2ccc(F)cc2)c(-c2nc(C(=O)NC(C)C)cs2)o1 [Example 1050]	> 1000
CC(C)NC(=O)c1csc(-c2c(-c3ccc(F)cc3)noc2CNCCc2ccc(Cl)cc2)n1 [Example 1479]	> 1000
Cc1nc(-c2ccc(F)cc2)c(-c2nc(C(=O)NCc3ccc(F)cc3F)cs2)s1 [Example 1789]	≤ 1000
Cc1cc(C(=O)N2CCC(c3[nH]nc(-c4ccc(F)cc4)c3-c3nc(C(=O)NC(C)C)cs3)CC2)cc(Cl)n1 [Example 906]	> 1000
Cc1nc(-c2ccc(F)cc2)c(-c2nc(C(=O)Nc3cccc(Cl)c3C)cs2)s1 [Example 1992]	≤ 1000
CC(C)NC(=O)c1csc(-c2c(-c3ccc(F)cc3)noc2CNCCCN2CCCC2=O)n1 [Example 1464]	≤ 1000
CCc1ccccc1NCc1onc(-c2ccc(F)cc2)c1-c1nc(C(=O)NC(C)C)cs1 [Example 1642]	> 1000
COc1ccc(CCN(C)Cc2nc(-c3ccc(F)cc3)c(-c3nc(C(=O)NC(C)C)cs3)o2)cc1OC [Example 1272]	> 1000
CC(=O)NC(Cc1ccc(O)cc1)C(=O)N1CCC(c2[nH]nc(-c3ccc(F)cc3)c2-c2nc(C(=O)NC(C)C)cs2)CC1 (centres unmarked) [Example 1019]	> 1000
CC(C)NC(=O)c1csc(-c2c(-c3ccc(F)cc3)n[nH]c2C2CCN(C(=O)c3ccc(F)cc3)CC2)n1 [Example 840]	> 1000
CC(C)NC(=O)c1csc(-c2c(-c3ccc(F)cc3)n[nH]c2C2CCN(C(=O)c3cnc(O)c(Cl)c3)CC2)n1 [Example 912]	> 1000
CC(C)NC(=O)c1csc(-c2c(-c3ccc(F)cc3)noc2CN2CCN(c3ccc(C#N)cn3)CC2)n1 [Example 1587]	> 1000
Cc1cccc(C(C)(C)C)c1NCc1nc(-c2ccc(F)cc2)c(-c2nc(C(=O)NC(C)C)cs2)o1 [Example 1358]	> 1000
CC(=O)c1cccc(NC(=O)c2csc(-c3sc(C)nc3-c3ccc(F)cc3)n2)c1 [Example 1983]	≤ 1000
CC(C)NC(=O)c1csc(-c2c(-c3ccc(F)cc3)n[nH]c2C2CCCN(C(=O)/C=C/c3ccccc3F)CC2)n1 (centres unmarked) [Example 892]	> 1000
CC(C)NC(=O)c1csc(-c2c(-c3ccc(F)cc3)n[nH]c2C2CCN(C(=O)c3ccccc3-c3ccccc3)CC2)n1 [Example 981]	> 1000
CC(C)NC(=O)c1csc(-c2oc(CNc3ccc(F)cc3C(F)(F)F)nc2-c2ccc(F)cc2)n1 [Example 1363]	> 1000
CC(C)NC(=O)c1csc(-c2c(-c3ccc(F)cc3)noc2CNC2CCCCC2)n1 [Example 1408]	> 1000
CC(C)NC(=O)c1csc(-c2oc(CNCC3(O)CCCCC3)nc2-c2ccc(F)cc2)n1 [Example 1160]	> 1000
CC(C)NC(=O)c1csc(-c2c(-c3ccc(F)cc3)n[nH]c2C2CCN(C(=O)c3ccccc3C(F)(F)F)CC2)n1 [Example 963]	> 1000
Cc1ccc([C@H](C)NC(=O)c2csc(-c3sc(C)nc3-c3ccc(F)cc3)n2)cc1 [Example 1770]	> 1000
CC(C)NC(=O)c1csc(-c2c(-c3ccc(F)cc3)noc2CNCCC(c2ccccc2)c2ccccc2)n1 [Example 1506]	> 1000
Cc1nc(-c2ccc(F)cc2)c(-c2nc(C(=O)Nc3ccc(N(C)C)cc3)cs2)s1 [Example 2009]	≤ 1000
Cc1nc(-c2ccc(F)cc2)c(-c2nc(C(=O)NC(C)C)cs2)[nH]1 [Example 2158, 2-|5-(4-Fluoro-phenyl)-2-methyl-3H-imidazol-4-yl|-thiazole-4-carboxylic acid isopropylamide]	≤ 1000

system: TNF-α production; test: TNF-α production by LPS-stimulated rats (ELISA); type: in vivo, Male Lewis rats; conditions: rat, dose 10 mg/kg, −1 hr before LPS; read-out: LPS Induced TNF alpha (−1 hr) In Vivo (+) = >15% Inhibition (−) = ≦15% Inhibition
Experimental: TNF-α Production by LPS-Stimulated Mice
Male Lewis rats (180-200 g) were injected intraperitoneally with lipopolysaccharide (LPS) (50 μg/kg of E. coli strain 0111:B4, Sigma) suspended in sterile saline. Ninety minutes later, mice were sedated by CO2:O2 inhalation and a blood sample was obtained. Serum was separated and analyzed for TNF-α concentrations by commercial ELISA assay per the manufacturer's instructions (R&D Bioscience). Test compounds were administered orally at various times before LPS injection. The compounds were dosed either as suspensions or as solutions in various vehicles or solubilizing agents.
Compounds were dosed 0.5 to 3 hours before LPS stimulation. Rats were anaesthetized with Isofluor and injected i.v. with 0.3 mg/kg of LPS* in a volume of 0.3 ml sterile saline. Ninety minutes after the LPS injection, blood samples were collected into heparin tubes for preparation of plasma samples. Repression of TNFα production is assessed by commercial ELISA and reported below in Table 2.

SMILES	inhibition at 10 mg/kg [%]
O=C(NCc1cccnc1)c1csc(-c2c(-c3ccc(F)cc3)n[nH]c2C2CCNCC2)n1 [Example 2028]	≤ 15
CC(C)NC(=O)c1csc(-c2c(-c3ccc(F)cc3)n[nH]c2C2CCN(C(=O)CO)CC2)n1 [Example 62, 2-{3-(4-Fluoro-phenyl)-5-|1-(2-hydroxy-acetyl)-piperidin-4-yl|-1H-pyrazol-4-yl}thiazole-4-carboxylic acid isopropylamide]	> 15
CCNC(=O)c1csc(-c2c(-c3ccc(F)cc3)n[nH]c2C2CCN(C(=O)CO)CC2)n1 [Example 64, 2-{3-(4-Fluoro-phenyl)-5-|1-(2-hydroxy-acetyl)-piperidin-4-yl|-1H-pyrazol-4-yl}-thiazole-4-carboxylic acid ethylamide]	≤ 15
O=C(NCc1cccnc1)c1csc(-c2c(-c3ccc(F)cc3)n[nH]c2C2CCN(C(=O)CO)CC2)n1 [Example 68, 2-{3-(4-Fluoro-phenyl)-5-|1-(2-hydroxy-acetyl)-piperidin-4-yl|-1H-pyrazol-4-yl}thiazole-4-carboxylic acid (pyridin-3-ylmethyl)-amide]	> 15
CC(C)NC(=O)c1csc(-c2c(-c3ccc(F)cc3)ncn2C2CCNCC2)n1 [Example 91, 2-|5-(4-Fluoro-phenyl)-3-piperidin-4-yl-3H-imidazol-4-yl|-thiazole-4-carboxylic acid isopropylamide]	> 15
CCNC(=O)c1csc(-c2c(-c3ccc(F)cc3)n[nH]c2C2CCNCC2)n1 [Example 2026]	> 15
Cc1nc(-c2ccc(F)cc2)c(-c2nc(C(=O)NC(C)C)cs2)o1 [Example 38]	> 15

same assay, conditions: rat, oral dosing, −1 hr before LPS; read-out: LPS Induced TNF alpha (−1 hr) In Vivo (+) = ED50 ≦ 10 (−) = ED50 > 10

SMILES	ED50 [mg/kg]
Cc1nc(-c2ccc(F)cc2)c(-c2nc(C(=O)NC(C)C)cs2)o1 [Example 38]	≤ 10
